Results from article PMC12336824 (The Journal of Biological Chemistry, 2025).
≈ marks a conversion by molar mass, not a printed value.

System: V. cholerae Δnqr mutant
Experiment: microbe, parasite or virus in culture
Format: cell-based

CC(C)/N=c1\cc2n(-c3ccc(Cl)cc3)c3ccccc3nc-2cc1Nc1ccc(Cl)cc1 [clofazimine]
resistance of the growth to saturating concentrations of inhibitor: about 40%
MIC50 (Vibrio cholerae, 8 h): 23 ± 6 µM (≈ 10.9 µg/mL)
